Assay results published in patent publication US4877881A, “Process of preparing pyrazoles, isoxazoles and analogs thereof having activity as 5-lipoxygenase inhibitors” (Warner-Lambert Company, priority 1988, dated 1989).

Experiments:
5-lipoxygenase [1] = biological target: T1, 5-lipoxygenase (Homo sapiens, UniProt P09917); experiment: 5-Lipoxygenase Assay Using Isolated Human Leukocytes (5LOA2), 5-HETE formation; type: cell-based; settings: inhibition of 5-HETE formation, arachidonic acid 20 μM, A23187 10 μM, read-out: 5-LO(IC50 in μM)
T1 construct: The formation of 5-HETE in human leukocytes is considered a measure of 5-lipoxygenase activity; endogenous in cells; host or cells: leukocytes isolated from fresh human blood
T1 sequence (P09917 1-674): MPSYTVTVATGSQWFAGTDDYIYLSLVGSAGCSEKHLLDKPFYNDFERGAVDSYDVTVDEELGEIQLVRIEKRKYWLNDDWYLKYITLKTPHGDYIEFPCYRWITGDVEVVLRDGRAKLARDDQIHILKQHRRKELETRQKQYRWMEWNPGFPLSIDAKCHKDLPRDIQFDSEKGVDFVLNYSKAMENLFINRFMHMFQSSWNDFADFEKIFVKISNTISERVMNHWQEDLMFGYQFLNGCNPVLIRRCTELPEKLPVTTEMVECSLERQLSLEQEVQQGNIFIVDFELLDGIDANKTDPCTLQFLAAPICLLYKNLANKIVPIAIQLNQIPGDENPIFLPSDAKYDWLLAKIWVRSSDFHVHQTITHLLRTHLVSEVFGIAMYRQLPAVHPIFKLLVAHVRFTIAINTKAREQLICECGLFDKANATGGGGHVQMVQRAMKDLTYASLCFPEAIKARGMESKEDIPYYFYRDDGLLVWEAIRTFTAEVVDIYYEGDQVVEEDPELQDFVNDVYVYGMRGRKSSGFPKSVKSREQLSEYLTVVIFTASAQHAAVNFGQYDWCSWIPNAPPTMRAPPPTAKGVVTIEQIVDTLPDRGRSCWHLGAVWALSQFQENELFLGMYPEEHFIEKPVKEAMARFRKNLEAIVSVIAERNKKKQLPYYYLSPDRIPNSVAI
Procedure: 5-Lipoxygenase Assay Using Isolated Human Leukocytes (5LOA2)
The formation of 5-HETE in human leukocytes is considered a measure of 5-lipoxygenase activity. The protocol is described in the following.
Fresh heparinized or EDTA treated human blood is mixed with 6% dextran-3% dextrose in isotonic saline in the ratio 0.25 ml dextran solution per 1.0 ml blood. After mixing the blood is allowed to sit at room temperature for about 90 minutes while the RBC's settle. During this period, the plasma is removed with a plastic pipette to nalgens tubes.
The pellet, consisting of leukocytes and erythrocytes, is treated with 10 ml 0.87% ammonium chloride at room temperature for four minutes, lysing the red cells. At the end of four minutes the cells are diluted with a 2x volume of phosphate buffered saline, pH 7.4, and centrifuged for ten minutes. The cells are washed three times with the phosphate buffered saline. Any of the pelleted cell matter which is not easily resuspended is discarded during the washings--the material contains platelets (12-lipoxygenase activity).
After washing, the cells are resuspended in phosphate buffered saline containing 1.0 mM 'calcium and 0.5 mM magnesium. After counting, the cells are diluted to 1.5-2.0×10^7 leukocytes per milliliter.
To each polypropylene reaction tube is added 0.48 ml leukocytes in Ca-Mg phosphate buffered saline, pH 7.4; 1-5 μl test compound dissolved in DMSO and buffer; or DMSO for control tubes.
The tubes preincubate at 37° C. for five minutes.
The reaction is started by adding 20 μl of the following, 0.5 μl, 20 mM arachidonic acid--final concentration=20 μM; 1 μl, 5 mM calcium ionophore A23187--final concentration=10 μM; and 18.5 μl buffer.
The reaction proceeds for five minutes, then is stopped by adding 0.5 ml, 0.5 mM ice-cold Tris buffer, pH 8.0. The tubes are chilled on ice for ten minutes and then extracted three times with a total of 3.5 ml ethyl acetate (3.0 ml removed).
The tubes can be stored at this point. For extended storage, the tubes should be filled with nitrogen.
The ethyl acetate is evaporated with a Sorvall Speed-Vac. The residue is dissolved in ethanol. The tubes can also be stored at this point at -20° C. under nitrogen.
A portion of the ethanol solution is injected into the HPLC system for 5-HETE quantitation.
Injections are made automatically with a Waters WISP 710B. The pump is a Spectra Physics SP8700. […] An RP C-18 column is used. The solvent system is isocratic; the solvent is 70% methanol and 30% 0.01M sodium acetate, pH 5.7, pumped at 1.0 ml/min. […] Using a 15 cm Alltech Nucleosil C-18 5 μM column provides for a sample turnaround time of about 16 minutes.

cyclooxygenase [2] = biological target: T2, cyclooxygenase (Bos taurus, UniProt O62664); experiment: Cyclooxygenase Enzyme Assay, bovine seminal vesicle (BSV), PGE2 formation; type: biochemical; settings: bovine seminal vesicle powder; 100 μM arachidonic acid, 20 minutes
T2 construct: The assay consists of incubating 2 mg bovine seminal vesicle powder; from tissue; host or cells: bovine seminal vesicle powder
T2 sequence (O62664 25-600): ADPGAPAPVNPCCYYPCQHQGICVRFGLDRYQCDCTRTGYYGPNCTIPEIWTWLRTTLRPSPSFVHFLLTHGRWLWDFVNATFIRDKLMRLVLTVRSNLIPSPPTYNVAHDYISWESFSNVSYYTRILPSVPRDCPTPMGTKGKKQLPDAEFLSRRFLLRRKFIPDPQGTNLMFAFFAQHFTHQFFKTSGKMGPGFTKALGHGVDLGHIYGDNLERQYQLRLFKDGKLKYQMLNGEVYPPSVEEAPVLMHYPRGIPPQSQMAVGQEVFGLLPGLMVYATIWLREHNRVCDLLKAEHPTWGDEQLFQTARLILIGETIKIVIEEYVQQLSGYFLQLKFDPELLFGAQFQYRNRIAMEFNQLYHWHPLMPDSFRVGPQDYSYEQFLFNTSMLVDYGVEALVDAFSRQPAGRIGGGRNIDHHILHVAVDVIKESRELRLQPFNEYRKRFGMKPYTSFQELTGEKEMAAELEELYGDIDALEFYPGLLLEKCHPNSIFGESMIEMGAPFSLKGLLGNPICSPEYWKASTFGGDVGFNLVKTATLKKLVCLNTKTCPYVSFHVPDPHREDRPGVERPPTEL
Procedure: Cyclooxygenase Enzyme Assay
Additionally, inhibition of cyclooxygenase is considered a measure of relevance to the pathophysiology of the above noted diseases.
The assay consists of incubating 2 mg bovine seminal vesicle powder with 2 mM epinephrine, 2.5 mM reduced glutathione, 100 μM arachidonic acid, and the test agent for 20 minutes. The reaction mixture is acidified and extracted with ethyl acetate (3×1.0 ml) and the pooled extract is evaporated to dryness using a Speed Vac Concentrator or under a stream of nitrogen. The residue was dissolved in ethanol.

5-lipoxygenase [3] = biological target: T3, 5-lipoxygenase (Rattus norvegicus, UniProt P12527); experiment: ARBL Whole Cell 5-Lipoxygenase Assay in RBL-1 cells (LTB4 RIA); type: cell-based; settings: RBL-1 intact cell 5-lipoxygenase; A23187 5 μM
T3 construct: ARBL/ARBC Whole Cell 5-Lipoxygenase and Cyclooxygenase Assays; endogenous in cells; host or cells: RBL-1 rat basophilic leukemia cells (American Type Culture Collection)
T3 sequence (P12527 1-673): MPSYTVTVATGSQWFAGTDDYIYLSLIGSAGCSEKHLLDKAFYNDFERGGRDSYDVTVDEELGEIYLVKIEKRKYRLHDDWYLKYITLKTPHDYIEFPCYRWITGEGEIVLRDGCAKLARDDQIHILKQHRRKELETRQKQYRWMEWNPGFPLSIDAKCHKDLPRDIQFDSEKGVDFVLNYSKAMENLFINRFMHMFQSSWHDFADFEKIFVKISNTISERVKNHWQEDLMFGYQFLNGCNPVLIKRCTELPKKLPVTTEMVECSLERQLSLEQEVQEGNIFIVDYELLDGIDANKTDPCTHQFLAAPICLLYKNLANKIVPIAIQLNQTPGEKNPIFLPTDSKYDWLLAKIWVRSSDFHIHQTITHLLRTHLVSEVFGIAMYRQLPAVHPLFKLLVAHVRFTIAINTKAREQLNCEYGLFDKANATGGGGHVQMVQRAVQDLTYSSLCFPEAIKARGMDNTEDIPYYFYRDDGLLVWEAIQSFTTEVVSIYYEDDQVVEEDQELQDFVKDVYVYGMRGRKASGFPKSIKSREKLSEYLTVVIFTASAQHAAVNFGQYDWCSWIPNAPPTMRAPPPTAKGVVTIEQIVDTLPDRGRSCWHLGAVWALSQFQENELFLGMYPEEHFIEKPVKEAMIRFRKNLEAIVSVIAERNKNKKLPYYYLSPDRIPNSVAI
Procedure: (§1) ARBL/ARBC Whole Cell 5-Lipoxygenase and Cyclooxygenase Assays
(§2) The rat basophilic leukemia cell line (RBL-1) was obtained from the American Type Culture Collection (Rockville, Md.).
(§3) Radioimmuno assay (RIA) kits of LTB4 and PGF2α were obtained from Amersham (Arlington Heights, Ill.) and Seragen (Boston, Mass.) respectively.
(§4) All tissue culture media were obtained from GIBO (Gran Island, N.Y.).
(§5) RBL-1 cells were grown in culture (suspension) in Eagle's minimum essential medium supplemented with 12% fetal bovine serum and 1:100 antibiotic-antimycotic mixture at 37° C. in an incubator supplied with air-5% carbon dioxide. Cells were harvested by centrifugation. They were washed with cold phosphate buffered saline pH 7.4 (PBS; NaCl, 7.1 g; Na2 HOP4, 1.15 g; KH2 PO4, 0.2 g; and KCl, 0.2 g/L). […] Calcium ionophore A23187 (5 μM) was added and cells were incubated for seven minutes at 37° C. The reaction was stopped by chilling the tubes in ice for ten minutes. Cells were separated by centrifugation and the supernatant was stored at -20°. Aliquots (100 μl) were analyzed for LTB4 and PGF2α using radioimmuno assay kits as provided by the supplier.

cyclooxygenase [4] = biological target: T4, cyclooxygenase (Rattus norvegicus, UniProt Q63921); experiment: ARBC Whole Cell Cyclooxygenase Assay in RBL-1 cells (PGF2α RIA); type: cell-based; settings: RBL-1 intact cell cyclooxygenase; A23187 5 μM
T4 construct: RBL-1 intact cell cyclooxygenase IC50 values; endogenous in cells; host or cells: RBL-1 rat basophilic leukemia cells (American Type Culture Collection)
T4 sequence (Q63921 27-602): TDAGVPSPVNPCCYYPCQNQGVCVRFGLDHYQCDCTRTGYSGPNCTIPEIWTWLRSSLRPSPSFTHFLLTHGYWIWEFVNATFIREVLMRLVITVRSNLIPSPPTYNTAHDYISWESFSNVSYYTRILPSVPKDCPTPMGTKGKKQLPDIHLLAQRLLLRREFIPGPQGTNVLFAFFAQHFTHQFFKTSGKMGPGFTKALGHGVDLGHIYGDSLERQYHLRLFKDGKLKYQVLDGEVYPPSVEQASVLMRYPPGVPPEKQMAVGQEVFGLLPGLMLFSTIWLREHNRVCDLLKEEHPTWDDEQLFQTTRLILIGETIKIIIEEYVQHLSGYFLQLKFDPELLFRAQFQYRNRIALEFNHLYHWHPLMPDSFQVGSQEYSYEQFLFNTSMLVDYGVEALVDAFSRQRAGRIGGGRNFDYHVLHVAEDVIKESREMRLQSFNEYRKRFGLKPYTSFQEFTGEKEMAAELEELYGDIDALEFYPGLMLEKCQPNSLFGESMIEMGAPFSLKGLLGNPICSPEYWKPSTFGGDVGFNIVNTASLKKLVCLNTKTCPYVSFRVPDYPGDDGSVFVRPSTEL
Procedure: as §1, §2, §3, §4, §5

IC50 (5-lipoxygenase [1])	IC50 (cyclooxygenase [2])	IC50 (5-lipoxygenase [3])	IC50 (cyclooxygenase [4])	SMILES
4.3 µM	40 µM	–	–	COc1cc(C=Cc2cc(-c3ccccc3)[nH]n2)ccc1O [Example 4, 3-[β-(4'-Hydroxy-3'-methoxyphenyl)ethenyl]-5-phenylpyrazole]
> 20 µM	–	–	–	COc1cc(CCc2cc(C)n[nH]2)ccc1O [Example 6, 3-[β-(4'-Hydroxy-3'-methoxyphenyl)ethyl]-5-methylpyrazole]
15 µM	44 µM	–	–	Oc1ccc(CCc2cc(CCc3ccc(O)cc3)[nH]n2)cc1 [Example 3, 3,5-Bis[β-(4'-hydroxyphenyl)ethyl]pyrazole]
29 µM	31 µM	–	–	COc1cc(CCc2cc(CCc3ccc(O)c(OC)c3)on2)ccc1O [Example 12, 3,5-Bis[β-(4'-hydroxy-3'-methoxyphenyl)ethyl]isoxazole]
> 20 µM	–	–	–	COc1ccc(C=Cc2cc(C)[nH]n2)cc1O [Example 8, 3-[β-(4'-Methoxy-3'-hydroxyphenyl)ethenyl]-5-methylpyrazole]
7.5 µM	56 µM	–	–	CCc1cc(C=Cc2ccc(O)c(OC)c2)n[nH]1 [Example 9, 3-[β-(4'-Hydroxy-3'-methoxyphenyl)ethenyl]-5-ethylpyrazole]
53 µM	67 µM	–	–	COc1cc(CCc2cc(CCc3ccc(O)c(OC)c3)[nH]n2)ccc1O [Example 2, 3,5-Bis[β-(4'-hydroxy-3'-methoxyphenyl)ethyl]pyrazole]
18 µM	–	5.2 µM	11 µM	CCOC(=O)c1cc(C=Cc2ccc(O)c(OC)c2)n[nH]1 [Example 10, Ethyl-3-[β-(3-methoxy-4-hydroxyphenyl)ethenyl]-1H-pyrazole-5-carboxylate]
